Data taken from patent US11358933B2, “Compounds and methods for inhibiting CYP26 enzymes” (Queen's University at Kingston, priority 2017, dated 2022).

What was measured:
CYP26A1 = CYP26A1 (Homo sapiens (Human), UniProt O43174); assay: Cell-based inhibitor assay ([3H]-RA metabolism), CYP26A1 stably transfected HeLa cells; conditions: for IC50: HeLa cell-based assay, 3 hours; for CYP26A1 Rel. to keto: IC50 relative to ketoconazole
Method: (§1) CYP26A1 or CYP26B1 stably transfected HeLa cells were maintained in Minimum Essential Medium (MEM) containing 10% fetal bovine serum (FBS) and 100 μg/mL hygromycin. Exponentially growing cells were harvested by incubation in trypsin. Cells were then collected and re-plated in 48-well culture plates at 5×10^5 cells in 0.2 mL of culture medium containing 0.05 μCi [^3H]-RA in the presence or absence of increasing concentrations of a test compound. The test compounds were diluted in dimethyl sulfoxide (DMSO) and then added in duplicate to wells at 0.01, 0.1, 1, 10 and 100 μM final concentration. As a positive control for inhibition of RA metabolism, cells were also incubated with ketoconazole at the same concentrations as above. Cells were incubated for 3 hours at 37° C. Retinoids were then extracted using the procedure of Bligh, et al., (1959), Canadian Journal of Biochemistry 37, 911-917, which was modified by using dichloromethane instead of chloroform. Each sample's water soluble radioactivity level was quantified using a β-scintillation counter (using Ecolume scintillation fluid, available from MP Biomedicals of Solon, Ohio, USA). IC50 values represented the concentration of inhibitor required to inhibit all trans-RA metabolism by 50%, and were derived from log transformed data.

CYP26B1 = CYP26B1 (Homo sapiens (Human), UniProt Q9NR63); assay: Cell-based inhibitor assay ([3H]-RA metabolism), CYP26B1 stably transfected HeLa cells; conditions: for IC50: HeLa cell-based assay, 3 hours; for CYP26B1 Rel. to keto: IC50 relative to ketoconazole
Sequence of CYP26B1 (Q9NR63 whole entry): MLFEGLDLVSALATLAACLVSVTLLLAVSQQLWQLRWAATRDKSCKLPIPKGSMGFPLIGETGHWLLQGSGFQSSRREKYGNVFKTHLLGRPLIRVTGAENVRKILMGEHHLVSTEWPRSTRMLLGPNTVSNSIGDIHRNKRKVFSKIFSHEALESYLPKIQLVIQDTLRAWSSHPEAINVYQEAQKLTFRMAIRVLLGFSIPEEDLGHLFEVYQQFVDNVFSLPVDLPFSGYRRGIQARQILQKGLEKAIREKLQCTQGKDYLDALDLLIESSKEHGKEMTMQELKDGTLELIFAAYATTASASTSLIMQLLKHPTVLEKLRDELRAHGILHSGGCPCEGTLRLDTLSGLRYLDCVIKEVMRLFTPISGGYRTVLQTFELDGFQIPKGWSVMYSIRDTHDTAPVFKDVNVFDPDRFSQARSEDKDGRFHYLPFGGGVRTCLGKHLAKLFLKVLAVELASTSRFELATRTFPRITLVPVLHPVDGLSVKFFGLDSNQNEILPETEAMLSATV
Method: as §1

MV4-11 cells [1] = assay: Leukemia cell differentiation by FACS (CD11b+), MV4-11 cells with or without stroma; assay type: cell-based, human; conditions: RA alone, without stroma
Method: (§2) Many human non-APL AML cell lines are sensitive to RA-induced differentiation. However, co-culture of leukemic cells with bone marrow stromal cells can block this effect of RA. This assay tests the ability of CYP26 inhibitor compounds to overcome the protective effect that stromal cells have on leukemic cell differentiation. For these experiments, OP9 mouse bone marrow stromal cells are grown MEM-α containing 20% FBS, in 24 well plates until a cell monolayer is formed. OP9 cells are then irradiated (15Gy) using a GammaCell 20 cesium-137 source (located at Queen's University) in order to induce growth arrest. Leukemic cells are then added to the irradiated monolayers, or control wells without OP9 cells. AML cell lines (150,000 cells) are then plated onto OP9 monolayers in their appropriated growth medium; THP-1 RPMI-1640 medium containing 10% FBS; MDSL, RPMI-1640 medium containing 10% FBS and 10 ng/ml recombinant human IL-3; Kasumi-1, RPMI-1640 containing 20% FBS; MV4-11, IMDM containing 10% FBS. […] Stained cells are then sorted by FACS in a BD FACS Aria 3 flow cytometer (Queen's University) using FACS Diva software, to assess percentage of cells that are CD11b^+, the relative expression levels of CD11b (by median fluorescence intensity—MFI), or percentage of CD34^+CD38^− leukemic stem cells (LSCs). […]

rhino mice = assay: Rhino mouse model of acne; assay type: in vivo; conditions: topical 10 nmol RA, 5 times per week, two weeks
Method: These experiments test the ability of CYP26 inhibitor compounds and other retinoids for potential anti-acne efficacy in a mouse model of acne. The rhino mouse model is a hairless mutant that develops skin lesions similar to acne, and has been used extensively as a model to assess new acne treatments, as well as in vivo activity of retinoids. Test compounds or RA were dissolved in acetone/10% DMSO, and 0.4 ml was applied topically to the dorsal skin of animals (2 male+2 female) once a day for five days per week, for two consecutive weeks. On the day after the last treatment, animals were sacrificed and skin was collected from the treated are and processed for histology, and epidermal sheets prepared for visualization of utriculi. Histological sections were prepared by paraffin embedding of formalin fixed samples, and stained with hematoxylin and eosin. Photographs were taken under a Nikon Eclipse E600 microscope using Q Imaging software at 20× magnification. Epidermal sheets were prepared by treating skin samples for 5 days in 0.5% acetic acid at 4° C. for 5 days, after which the dermal and epidermal layers were carefully separated, and the epidermis was then dehydrated with a series of ethanol treatments (70%, 80%, 90% and 100%). […]

kasumi-1 human AML cells = assay: CD34+CD38- LSC analysis by FACS, Kasumi-1 cells with or without OP9 stroma; assay type: cell-based; conditions: 1 μM RA alone, without stroma
Method: as §2

human AML THP-1 cells = assay: Leukemia cell differentiation by FACS (PE-CD11b), THP-1 cells with or without OP9 stroma; assay type: cell-based; conditions: RA alone
Method: Many human non-APL AML cell lines are sensitive to RA-induced differentiation. However, co-culture of leukemic cells with bone marrow stromal cells can block this effect of RA. This assay tests the ability of CYP26 inhibitor compounds to overcome the protective effect that stromal cells have on leukemic cell differentiation. For these experiments, OP9 mouse bone marrow stromal cells are grown MEM-α containing 20% FBS, in 24 well plates until a cell monolayer is formed. OP9 cells are then irradiated (15Gy) using a GammaCell 20 cesium-137 source (located at Queen's University) in order to induce growth arrest. Leukemic cells are then added to the irradiated monolayers, or control wells without OP9 cells. AML cell lines (150,000 cells) are then plated onto OP9 monolayers in their appropriated growth medium; THP-1 RPMI-1640 medium containing 10% FBS; MDSL, RPMI-1640 medium containing 10% FBS and 10 ng/ml recombinant human IL-3; Kasumi-1, RPMI-1640 containing 20% FBS; MV4-11, IMDM containing 10% FBS. Cells are then treated for 72 hours with DMSO (vehicle control), RA (0.1 μM for THP-1 and MV4-11 cells, and 1 μM for Kasumi-1 cells), test CYP26 inhibitor compound, or the combination of RA and inhibitor compound. After the treatment period, leukemic cells are collected and stained with fluorophore labeled antibodies against cell surface antigens indicative of myeloid differentiation (PE-CD11b), or of stem cell populations (FITC-CD34, PE-CD38); all antibodies are available from BD Biosciences. Stained cells are then sorted by FACS in a BD FACS Aria 3 flow cytometer (Queen's University) using FACS Diva software, to assess percentage of cells that are CD11b^+, the relative expression levels of CD11b (by median fluorescence intensity—MFI), or percentage of CD34^+CD38^− leukemic stem cells (LSCs). Results are typically presented as the average of triplicates.

THP-1 cells = assay: Leukemia cell colony formation, THP-1 cells; assay type: cell-based, human; conditions: RA alone, without stroma
Method: This experiment is used to test the long-term proliferative ability of hematopoietic stem and progenitor cells as well as leukemic stem cells. Colony forming ability in long term cultures is indicative of stem/progenitor cell activity. […] For these experiments, bone marrow stromal and leukemic cell co-cultures are prepared as described above and treated with RA and/or CYP26 inhibitor compound for 72 hours. After the treatment period, leukemic cells are collected and re-plated in semi-solid methylcellulose medium to assess colony forming ability. 500 leukemic cells are plated per dish in 35 mm plates in 1.1 ml of MethoCult (available from STEMCELL Technologies, Vancouver, Canada). Triplicate plates are prepared per treatment, and cultures are grown for 14-16 days in a CO2 incubator. After the culture period colonies are counted under a dissecting microscope.

MV4-11 cells [2] = assay: Leukemia cell apoptosis (FITC-Annexin V), MV4-11 cells; assay type: cell-based, human; conditions: RA alone
Method: RA can also induce apoptosis is a variety of cell types, including AML cells. This experiment tests CYP26 inhibitor compounds for their ability to rescue RA-induced apoptosis in the presence of bone marrow stromal cells. For these experiments MV4-11 AML cells are plated as above, in the presence and absence of stromal monolayers. Cells are then treated for 48 hours with RA (0.1 μM). After the treatment period, cells are stained with a FITC-labeled annexin V antibody (available from Thermofisher Scientific), which binds to the surface of apoptotic cells. Cells are then sorted by FACS in a as above and data are expressed as percentage of annexin V^+ (apoptotic) cells.

[3] = tested on: Cyp26a1-luc construct in MCF-7 cells; assay: Retinoid activity assay, Cyp26a1-luc reporter in MCF-7 cells; assay type: cell-based; conditions: 24 hours, firefly relative to Renilla luciferase
Text: This retinoid activity assay measures the ability of test compounds to induce expression of a transiently transfected RA sensitive reporter construct. In this assay, MCF-7 cells are transfected with a construct comprising an upstream promoter of the CYP26A1 gene containing 2 RA response elements driving expression of firefly luciferase (pCYP26A1-luc). Since CYP26A1 is highly inducible by RA in these cells, this construct serves as a sensitive reporter of retinod-like transcriptional activity.
MCF-7 cells were maintained in a RPMI-1640 medium containing 10% FBS. Exponentially growing cells were harvested by incubation in trypsin. Cells were then collected and plated in 24-well plates at 50,000 cells/well. Once cells reached 80-90% confluence (e.g., the next day), cells were transfected with two plasmids. The first plasmid was CYP26A1-luc construct (375 ng). The second plasmid was a control plasmid comprising the Renilla luciferase gene driven by constitutive thymidine kinase promoter (pRL-tk) (25 ng). Transfection was performed using FuGene 6 transfection reagent (Promega) with a 1:3 ratio of DNA:FuGene. 24 hours after transfection, cells were treated with test compounds diluted in DMSO in triplicate at 0.1, 1 and 10 μM final concentrations. As a positive control for reporter activation, cells were also treated with RA diluted in DMSO at the same concentrations listed above. DMSO treatment alone served as a negative control. After 24 hours of treatment, cells were harvested in passive lysis buffer (Promega) and luciferase activity in cell lysates were read using a luminometer. Data are expressed as the activity of firefly luciferase relative to Renilla luciferase (see Tables 3-5). For CYP26A1 inhibitor compounds, no activation of the reporter was detected, while the related retinoid-like compound induces luciferase expression.

Sequence of CYP26A1 (O43174 whole entry): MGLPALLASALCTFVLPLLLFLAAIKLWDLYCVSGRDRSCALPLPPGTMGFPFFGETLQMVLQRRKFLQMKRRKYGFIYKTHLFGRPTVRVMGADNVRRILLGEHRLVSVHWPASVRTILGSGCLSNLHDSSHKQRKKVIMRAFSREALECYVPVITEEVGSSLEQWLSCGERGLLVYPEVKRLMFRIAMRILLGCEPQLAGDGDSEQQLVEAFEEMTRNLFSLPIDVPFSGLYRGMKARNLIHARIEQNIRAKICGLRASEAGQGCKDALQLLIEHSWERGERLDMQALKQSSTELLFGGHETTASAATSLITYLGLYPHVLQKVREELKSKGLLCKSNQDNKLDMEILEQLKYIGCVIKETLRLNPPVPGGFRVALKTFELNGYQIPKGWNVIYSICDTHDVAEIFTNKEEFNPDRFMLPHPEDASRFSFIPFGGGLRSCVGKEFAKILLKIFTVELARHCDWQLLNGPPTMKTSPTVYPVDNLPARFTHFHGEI

SMILES: Cc1ccc(C(C)(C)C)cc1-c1cc2cc(/C=C/C(=O)O)ccc2[nH]1 [Compound 034]
- IC50 (CYP26A1): 9.6 µM
- CYP26A1 Rel. to keto (CYP26A1): 1.9
- IC50 (CYP26B1): 0.5 µM
- CYP26B1 Rel. to keto (CYP26B1): 0.2

SMILES: CC1=C(/C=C/C(C)=C/C=C/C(C)=C/C(=O)O)C(C)(C)CCC1 [RA, retinoic acid, reference compound]
- Percentage of CD11b+ cells (MV4-11 cells [1]): increased the percentage of
- Utriculi size and epidermis thickness (rhino mice): reduction in the size of these utriculi, and a thickening of the epidermis
- Number of CD34+CD38- cells (LSCs) (kasumi-1 human AML cells): significantly reduced the number of these cells
- CD11b marker expression (MFI) (human AML THP-1 cells): significantly increases expression of the CD11b marker
- Colony forming ability (THP-1 cells): reduced in THP-1 cells by exposure to RA
- Apoptosis (Annexin V positive cells) (MV4-11 cells [2]): undergo apoptosis in response to RA

SMILES: CC(C)(C)c1cccc(-c2cc3cc(CC(=O)O)ccc3o2)c1 [Compound 032]
- Rel. Luciferase Activity (mean) ([3]; 0.1 μM): .0019
- Rel. Luciferase Activity (mean) ([3]; 1 μM): .0015
- Rel. Luciferase Activity (mean) ([3]; 10 μM): .0004
- IC50 (CYP26A1): 8.6 µM
- CYP26A1 Rel. to keto (CYP26A1): 1.2
- IC50 (CYP26B1): 2.3 µM
- CYP26B1 Rel. to keto (CYP26B1): 0.3

SMILES: CC1(C)CC(C)(C)c2cc(-c3cc4cc(CC(=O)O)ccc4o3)cc(C3CC3)c2O1 [Compound 033]
- Rel. Luciferase Activity (mean) ([3]; 0.1 μM): .0024
- Rel. Luciferase Activity (mean) ([3]; 1 μM): .0026
- Rel. Luciferase Activity (mean) ([3]; 10 μM): .0027

SMILES: C=CCc1cc(C(=O)Cc2ccc(CC(=O)O)cc2)cc2c1OC(C)(C)CC2(C)C [Compound 027]
- Rel. Luciferase Activity (mean) ([3]; 0.1 μM): .0116
- Rel. Luciferase Activity (mean) ([3]; 1 μM): .0099
- Rel. Luciferase Activity (mean) ([3]; 10 μM): .0121
- IC50 (CYP26A1): 8.6 µM
- CYP26A1 Rel. to keto (CYP26A1): 1.2
- IC50 (CYP26B1): 8.8 µM
- CYP26B1 Rel. to keto (CYP26B1): 0.9

SMILES: CC(C)(C)c1cccc(B(O)Oc2ccc(/C=C/C(=O)O)cc2)c1 [Compound 029]
- Rel. Luciferase Activity (mean) ([3]; 0.1 μM): .0386
- Rel. Luciferase Activity (mean) ([3]; 1 μM): .0384
- Rel. Luciferase Activity (mean) ([3]; 10 μM): .0333
- IC50 (CYP26B1): 54.9 µM
- CYP26B1 Rel. to keto (CYP26B1): 5.7

SMILES: CC(C)(C)c1cccc(-c2cc3cc(/C=C/C(=O)O)ccc3o2)c1 [Compound 031]
- Rel. Luciferase Activity (mean) ([3]; 0.1 μM): .0039
- Rel. Luciferase Activity (mean) ([3]; 1 μM): .0047
- Rel. Luciferase Activity (mean) ([3]; 10 μM): .0034
- IC50 (CYP26B1): 18.3 µM
- CYP26B1 Rel. to keto (CYP26B1): 2

SMILES: CC1(C)CC(C)(C)c2cc(B3Oc4ccc(CC(=O)O)cc4O3)cc(C3CC3)c2O1 [Compound 030]
- Rel. Luciferase Activity (mean) ([3]; 0.1 μM): .0411
- Rel. Luciferase Activity (mean) ([3]; 1 μM): .0343
- Rel. Luciferase Activity (mean) ([3]; 10 μM): .0385
- IC50 (CYP26A1): 31.5 µM
- CYP26A1 Rel. to keto (CYP26A1): 20
- IC50 (CYP26B1): 88.1 µM
- CYP26B1 Rel. to keto (CYP26B1): 9.2

SMILES: CC1(C)CC(C)(C)c2cc(C(=O)Cc3ccc(CC(=O)O)cc3)cc(C3CC3)c2O1 [Compound 028]
- Rel. Luciferase Activity (mean) ([3]; 0.1 μM): .0165
- Rel. Luciferase Activity (mean) ([3]; 1 μM): .0094
- Rel. Luciferase Activity (mean) ([3]; 10 μM): .0144
- IC50 (CYP26A1): > 1000 µM
- IC50 (CYP26B1): > 1000 µM

SMILES: CC(C)(C)c1cccc(C(=O)Cc2ccc(/C=C/C(=O)O)cc2)c1 [Compound 025]
- Rel. Luciferase Activity (mean) ([3]; 0.1 μM): .0144
- Rel. Luciferase Activity (mean) ([3]; 1 μM): .01
- Rel. Luciferase Activity (mean) ([3]; 10 μM): .0128
- IC50 (CYP26A1): 45.6 µM
- CYP26A1 Rel. to keto (CYP26A1): 21.7
- IC50 (CYP26B1): 17.9 µM
- CYP26B1 Rel. to keto (CYP26B1): 4.2
